#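 The compound was tested at five concentrations on cells cultured in 96-well plates, with a 48-hour exposure period. Abbreviation: GI50, concentration required for 50% inhibition of growth. TGI marks complete inhibition of growth.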
# Assays:
# Experiment in all cases: inhibition of tumour cell growth, NCI panel, 48 h
# [1] = system: NCI-H23 lung
# [2] = system: UO-31 renal
# [3] = system: DU-145 prostate
# [4] = system: BT-549 breast
# [5] = system: COLO 205 colon
# [6] = system: RPMI-8226 leukemia
# [7] = system: HT29 colon
# [8] = system: HOP-62 NSCLC
Compound,TGI [1] [µM],TGI [2] [µM],TGI [3] [µM],TGI [4] [µM],TGI [5] [µM],TGI [6] [µM],TGI [7] [µM],TGI [8] [µM],GI50 [6] [µM]
COC(=O)C(COC(=O)/C=C/c1ccc(OC(C)=O)c(OC(C)=O)c1)OC(=O)/C=C/c1ccc(OC(C)=O)c(OC(C)=O)c1 (stereo not given),71.8,21.8,24.7,33.5,30,66.4,19.7,58.2,–
CC1(C)[C@@H]2C[C@H]1c1cnc(-c3ccccn3)cc1C2[C@@H]1c2cc(-c3ccccn3)ncc2[C@@H]2C[C@H]1C2(C)C (stereo not given in full),> 100,85.9,> 100,> 100,> 100,> 100,> 100,> 100,–
CCCCCCCCCCCCCCCCNc1nc(=O)n(C2CC(O)C(CO)O2)cc1F (stereo not given),18,18.8,21.6,32.4,48.6,37.6,21.5,20,–
N#CCCN(CCCN(C(=O)Nc1ccccc1)c1ccccc1)C(=O)Nc1ccccc1,> 100,> 100,> 100,> 100,> 100,> 100,> 100,> 100,–
CSCCC(NC(=O)OC(C)(C)C)C(=O)NCCNc1ccc(NCCNC(=O)C(CCSC)NC(=O)OC(C)(C)C)c2c1C(=O)c1ccccc1C2=O (stereo not given),15.9,> 100,33.2,9.59,5.41,12.2,7.51,8.2,–
O=C(NNC(=S)Nc1ccccc1)c1csc(NC(=S)NC2CCCCC2)n1,> 100,79.6,> 100,> 100,> 100,> 100,> 100,> 100,–
CCOC(=O)c1cn(-c2ccc(Cl)cc2)c(=O)n2c1nc1ccccc12,> 100,> 100,> 100,> 100,> 100,> 100,> 100,> 100,–
O=C1[C@@H]2Cc3c([nH]c4ccccc34)C(C3CCCCC3)N2C(=O)[C@@H]2CCCN12 (stereo not given in full),> 100,> 100,> 100,88,42.9,51,73.4,> 100,–
CC(C)(C)OC(=O)N1C(OP(=O)(Oc2ccccc2)Oc2ccccc2)=COc2cccnc21,> 100,> 100,> 100,> 100,> 100,53.2,> 100,> 100,–
O=C1NC(N/N=C\c2ccccc2)=N/C1=C/c1ccc(Cl)cc1,39.9,36.2,> 100,49.5,> 100,59.7,> 100,42,–
CCOC(=O)C1=C(C)NC(=S)NC1c1cccc(O)c1 (stereo not given),> 100,> 100,> 100,> 100,> 82.3,> 97,> 100,> 100,–
N#CCc1nc(C#N)c(N)o1,> 100,> 100,> 100,> 100,> 100,> 100,> 100,> 100,> 100
CC[N+](C)(CC)CCN1C(=O)c2ccccc2S1(=O)=O,> 100,> 100,> 100,> 100,> 100,> 100,> 100,> 100,–
